Source: US10117837B2, “Methods of preparing stimuli-responsive multifunctional nanoparticles” (priority 2017, dated 2018)

Key:
[1] = tested on: OVCAR-3/luc orthotopic ovarian tumor; assay: H&E staining of ovarian tumor sections; assay type: in vivo, nude mice; conditions: after 20 days of treatment
Experimental: (§1) Tumors and normal ovaries from mice with different treatments were collected for histological assay after mice were sacrificed. […] paraffin tissue sections were prepared for analysis. Morphology of tumors and normal ovaries were examined by haematoxylin and eosin (H&E) staining. TUNEL staining were used for the live/dead assay in the tissue sections using DeadEnd™ Fluorometric TUNEL System (Promega, USA). Tissue sections were examined at magnification of 400× using fluorescent microscope (Zeiss, Germany).
(§2) The therapeutic effect of the stimuli-responsive multifunctional nanoparticle of the present invention on ovarian cancer cells was further analyzed histologically after the mice were treated differently as mentioned above for 20 days and sacrificed.

NIH3T3 cells = assay: Cell viability (MTS assay) in NIH3T3 cells; assay type: cell-based, mouse; conditions: NIH3T3, 48 hours, various concentrations
Experimental: (§3) The cytotoxicity and anticancer effect of the stimuli-responsive multifunctional nanoparticle of the present invention was evaluated by cell viability assay in NIH3T3 and OVCAR-3 cells. The cells were seeded in a 96-well plate at a density of 5×10^3 cells/well and incubated at 37° C. for 24 hours. Next, DOX.HCl, the HA-cys-ADOX nanoparticles, or the LHRH-HA-cys-ADOX nanoparticles dissolved in DMEM at predetermined concentrations equivalent to DOX was added to the cells. Cells treated with DMEM were the negative control group. After incubation at 37° C. for 48 hours, the cells were washed with PBS (pH 7.4). Cell viability was measured by MTS assay (CellTiter 96® AQueous One Solution Cell Proliferation Assay (Promega, USA)) according to the manufacturer's instructions and calculated as the ratio of light absorbance at […] of the experimental group to that of the negative control group.

OVCAR-3 cells [2] = assay: Cell viability (MTS assay) in OVCAR-3 cells; assay type: cell-based, human; conditions: OVCAR-3, 48 hours, various concentrations
Experimental: as §3

OVCAR-3 cells [3] = assay: Cellular uptake by fluorescence microscopy in OVCAR-3 cells; assay type: cell-based, human; conditions: 4 hours, equivalent to 50 mg/mL DOX
Experimental: The cellular uptake of the stimuli-responsive multifunctional nanoparticle of the present invention and the intracellular drug delivery were investigated by fluorescence microscopy. Human ovarian cancer cells OVCAR-3 and mouse embryonic fibroblasts NIH3T3 were cultured to 70-80% confluence and seeded onto 4-well chamber slides (BD Falcon, USA) at a density of 1×10^5 cells/well. After incubation at 37° C. for 24 hours, DOX.HCl, the HA-cys-ADOX nanoparticles (referred to as HA NPs), or the LHRH-HA-cys-ADOX nanoparticles (referred to as LHRH NPs) dissolved in DMEM at concentrations equivalent to 50 mg/mL DOX was added to the cells for a 2-hour incubation at 37° C. Cells treated with DMEM were the negative control group (NC). Next, fluorescent dyes Lysotracker Green and DAPI in DMEM were sequentially added to the abovementioned cells to stain endosome/lysosome for 2 hours and nuclei for 1 hour. After all the reagents were removed, the cells were washed with PBS (pH 7.4) three times, followed by addition of a mounting medium to fix the cells and prevent fluorescence fading. Cells were examined using a fluorescent microscope (Zeiss, Germany).

[4] = tested on: OVCAR-3/luc orthotopic ovarian tumor; assay: TUNEL staining of ovarian tumor sections; assay type: in vivo, nude mice; conditions: after 20 days of treatment
Experimental: as §1, §2

[5] = tested on: OVCAR-3/luc orthotopic ovarian tumor; assay: Anti-tumor effect in orthotopic ovarian tumor xenograft model, ROI size by bioluminescence imaging; assay type: in vivo, nude mice; conditions: day 20, dose equivalent to 5 mg/kg of DOX via tail vein
Excerpt: The orthotopic human ovarian cancer xenograft model was established using 6-8 week old female athymic nude mice purchased from National Laboratory Animal Center (Taipei, Taiwan). All mouse procedures were approved by the Institutional Animal Care and Use Committee (IACUC) of National Tsing Hua University. Prior to surgery, the mouse was laid dorsal side up under anesthetic. The incision was made left or right of the midline and directly above the ovarian fat pad. The ovarian fat pad was gently pulled out and rested onto a sterile saline soaked gauze pad. Under a dissecting microscope, the ovary was allowed for the insertion of a 30 gauge needle into the bursa. Suspension (1×10^6) of OVCAR-3/luc cells in a maximum volume of […] was slowly injected between the bursa and the ovary. […]
Growth of tumor was monitored by bioluminescence imaging (BLI) using in vivo imaging system (Caliper Life Sciences). […] Prior to being monitored, the tumor-implanted mice were injected intraperitoneally with 150 mg/kg of D-luciferin substrate. The Regions of Interest (ROIs) in tumor area were selected and used for quantification of tumor size by the software provided by the Caliper Life Sciences. Volumes or sizes of ROIs were calculated as L×W^2/2, where L was the largest and W was the smallest diameter of each ROI. […]

## COc1cccc2c1C(=O)c1c(O)c3c(c(O)c1C2=O)C[C@@](O)(C(=O)CO)C[C@@H]3O[C@H]1C[C@H](N)[C@H](O)[C@H](C)O1.Cl [free DOX, doxorubicin hydrochloride]
[1]
  tumor cell morphology (H&E staining): cell proliferation with dense nuclei in random pattern
NIH3T3 cells
  cytotoxicity: dose-dependent
OVCAR-3 cells [2]
  cytotoxicity / anticancer effect: dose-dependent
OVCAR-3 cells [3]
  difference in intensity of intracellular DOX fluorescence between OVCAR-3 and NIH3T3 cells: no difference
[4]
  TUNEL fluorescence signal (apoptotic cells) in tumors: no significant TUNEL fluorescence signal
[5]
  ROI size relative to that of the LHRH-NPs/Cy5.5-treated mice: 4.3 fold
